Laboratory results taken from ChEMBL document CHEMBL5543116, “Discovery of DNL343: A Potent, Selective, and Brain-Penetrant eIF2B Activator Designed for the Treatment of Neurodegenerative Diseases” (J Med Chem, 2024).
≈ marks a conversion by molar mass, not a printed value. One block for each compound: values may come before it. Calls of active or inactive are those of the source. The rule behind the calls is not given here.

Columns and labels:
[1] = Metabolic stability in human liver microsome assessed as hepatic clearance; type: ADME; settings: liver microsomes
[2] = Kinetic solubility of compound; type: physicochemical; settings: read-out: Kinetic_solubility
[3] = Lipophilicity, log D of the compound at pH 7.4; type: physicochemical; settings: buffer
[4] = Oral bioavailability in rat at 3 mg/kg by LC-MS/MS analysis; type: ADME, organism-based; settings: in vivo
[5] = Clearance in rat at 1 mg/kg, iv by LC-MS/MS analysis; type: ADME, organism-based; settings: in vivo
[6] = Volume of distribution at steady state in rat at 1 mg/kg, iv by LC-MS/MS analysis; type: ADME, organism-based; settings: in vivo, read-out: Vdss
[7] = Metabolic stability in rat liver microsome assessed as hepatic clearance; type: ADME; settings: liver microsomes
[8] = Half life in rat at 1 mg/kg, iv by LC-MS/MS analysis; type: ADME, organism-based; settings: in vivo
[9] = Half life in cynomolgus monkey at 0.5 mg/kg, iv; type: ADME, organism-based, Macaca fascicularis; settings: in vivo
[10] = Half life in rat at 1 mg/kg, iv; type: ADME, organism-based; settings: in vivo
Mus musculus [11] = assay: Neuroprotective activity against Eif 2bS R191H […] mouse model assessed as reduction in Chac1 level in brain at 50 mg/kg, po administered for 2 days; type: functional, organism-based; settings: time 2.0 day
[12] = molecular target: T1, Aryl hydrocarbon receptor (Homo sapiens, UniProt P35869); assay: Activation of AHR (unknown origin)
T1 sequence (P35869 whole entry): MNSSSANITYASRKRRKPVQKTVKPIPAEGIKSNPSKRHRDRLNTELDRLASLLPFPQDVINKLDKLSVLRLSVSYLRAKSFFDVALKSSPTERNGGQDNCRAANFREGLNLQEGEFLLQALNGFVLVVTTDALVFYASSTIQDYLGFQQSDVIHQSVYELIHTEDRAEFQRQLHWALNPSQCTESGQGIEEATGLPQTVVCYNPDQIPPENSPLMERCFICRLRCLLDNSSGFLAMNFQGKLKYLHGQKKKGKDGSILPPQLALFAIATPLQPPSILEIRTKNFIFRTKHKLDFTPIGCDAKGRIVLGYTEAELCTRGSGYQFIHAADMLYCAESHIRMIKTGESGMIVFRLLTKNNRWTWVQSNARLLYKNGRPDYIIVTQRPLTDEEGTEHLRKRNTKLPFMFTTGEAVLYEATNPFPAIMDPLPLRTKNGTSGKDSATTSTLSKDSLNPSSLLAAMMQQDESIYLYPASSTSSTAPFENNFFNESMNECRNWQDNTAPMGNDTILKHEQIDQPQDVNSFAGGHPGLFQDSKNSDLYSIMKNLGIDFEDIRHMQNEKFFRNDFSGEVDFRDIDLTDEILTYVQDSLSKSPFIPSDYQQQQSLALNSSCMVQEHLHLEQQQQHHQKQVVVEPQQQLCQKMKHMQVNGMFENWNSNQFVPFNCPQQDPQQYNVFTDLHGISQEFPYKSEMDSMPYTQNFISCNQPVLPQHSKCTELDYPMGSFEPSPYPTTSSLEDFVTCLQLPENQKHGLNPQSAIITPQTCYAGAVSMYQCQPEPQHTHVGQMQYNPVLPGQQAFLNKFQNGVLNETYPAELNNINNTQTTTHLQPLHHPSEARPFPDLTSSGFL

[13] = Clearance in dog at 0.5 mg/kg, iv; type: ADME, organism-based, Canis lupus familiaris; settings: in vivo
[14] = Oral bioavailability in cynomolgus monkey at 1 mg/kg; type: ADME, organism-based, Macaca fascicularis; settings: in vivo
[15] = Volume of distribution at steady state in dog at 0.5 mg/kg, iv; type: ADME, organism-based, Canis lupus familiaris; settings: in vivo, read-out: Vdss
Mus musculus [16] = assay: Neuroprotective activity against Eif 2bS R191H […] mouse model assessed as reduction in Atf4 level in brain at 50 mg/kg, po administered for 2 days; type: functional, organism-based; settings: time 2.0 day
[17] = Clearance in cynomolgus monkey at 0.5 mg/kg, iv; type: ADME, organism-based, Macaca fascicularis; settings: in vivo
Mus musculus [18] = assay: Neuroprotective activity against Eif 2bS R191H […] mouse model assessed as reduction in mthfd2 level in brain at 50 mg/kg, po administered for 2 days; type: functional, organism-based; settings: time 2.0 day
Mus musculus [19] = assay: Neuroprotective activity against Eif 2bS R191H […] mouse model assessed as reduction in Slc1a5 level in brain at 50 mg/kg, po administered for 2 days; type: functional, organism-based; settings: time 2.0 day
Mus musculus [20] = assay: Neuroprotective activity against Eif 2bS R191H […] mouse model assessed as reduction in Sic7a5 level in brain at 50 mg/kg, po administered for 2 days; type: functional, organism-based; settings: time 2.0 day
[21] = Half life in dog at 0.5 mg/kg, iv; type: ADME, organism-based, Canis lupus familiaris; settings: in vivo
Mus musculus [22] = assay: Neuroprotective activity against Eif 2bS R191H […] mouse model assessed as reduction in Ddit3 level in brain at 50 mg/kg, po administered for 2 days; type: functional, organism-based; settings: time 2.0 day
Mus musculus [23] = assay: Neuroprotective activity against Eif 2bS R191H […] mouse model assessed as reduction in trib3 level in brain at 50 mg/kg, po administered for 2 days; type: functional, organism-based; settings: time 2.0 day
[24] = Ratio of unbound drug concentration in cynomolgus monkey brain to plasma at 0.5 mg/kg, po measured after 6 hrs; type: ADME, organism-based, Macaca fascicularis
[25] = molecular target: T2, Nuclear receptor subfamily 1 group I member 2 (Homo sapiens, UniProt O75469); assay: Activation of PXR (unknown origin)
T2 sequence (O75469 whole entry): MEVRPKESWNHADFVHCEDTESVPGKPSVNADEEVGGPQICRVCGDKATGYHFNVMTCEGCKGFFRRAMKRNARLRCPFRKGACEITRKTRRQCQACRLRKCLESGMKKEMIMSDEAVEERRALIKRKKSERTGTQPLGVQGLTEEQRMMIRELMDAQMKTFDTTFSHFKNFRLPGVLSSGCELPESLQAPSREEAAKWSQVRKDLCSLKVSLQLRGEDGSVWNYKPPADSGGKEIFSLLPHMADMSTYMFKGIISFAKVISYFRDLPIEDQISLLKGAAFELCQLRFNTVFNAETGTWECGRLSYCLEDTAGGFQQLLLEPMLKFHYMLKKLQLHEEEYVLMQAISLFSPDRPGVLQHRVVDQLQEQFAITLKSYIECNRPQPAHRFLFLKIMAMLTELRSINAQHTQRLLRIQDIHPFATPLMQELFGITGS

Mus musculus [26] = assay: Neuroprotective activity against Eif 2bS R191H […] mouse model assessed as reduction in Sic7a11 level in brain at 50 mg/kg, po administered for 2 days; type: functional, organism-based; settings: time 2.0 day
Mus musculus [27] = assay: Neuroprotective activity against Eif 2bS R191H […] mouse model assessed as reduction in Psat1 level in brain at 50 mg/kg, po administered for 2 days; type: functional, organism-based; settings: time 2.0 day
[28] = Oral bioavailability in rat at 3 mg/kg; type: ADME, organism-based; settings: in vivo
Mus musculus [29] = assay: Neuroprotective activity against Eif 2bS R191H […] mouse model assessed as reduction in Sensn2 level in brain at 50 mg/kg, po administered for 2 days; type: functional, organism-based; settings: time 2.0 day
[30] = Metabolic stability in rat liver microsome assessed as clearance; type: ADME; settings: liver microsomes
[31] = Volume of distribution at steady state in cynomolgus monkey at 0.5 mg/kg, iv; type: ADME, organism-based, Macaca fascicularis; settings: in vivo, read-out: Vdss
Mus musculus [32] = assay: Neuroprotective activity against Eif 2bS R191H […] mouse model assessed as reduction in asns level in brain at 50 mg/kg, po administered for 2 days; type: functional, organism-based; settings: time 2.0 day
Mus musculus [33] = assay: Neuroprotective activity against Eif 2bS R191H […] mouse model assessed as reduction in ppp1r15a level in brain at 50 mg/kg, po administered for 2 days; type: functional, organism-based; settings: time 2.0 day
H4 = assay: Neuroprotective activity against NaAsO2-induced human H4 cells expressing GFP TDP43 (86 to 414 residues) assessed as decrease in TDP43 accumulation incubated for 2 hrs by DAPI staining based microscopic analysis; type: functional, cell-based; settings: H4, 2 h
[34] = Oral bioavailability in dog at 1 mg/kg; type: ADME, organism-based, Canis lupus familiaris; settings: in vivo
[35] = molecular target: Voltage-gated inwardly rectifying potassium channel KCNH2 (Homo sapiens, UniProt Q12809); assay: Inhibition of hERG manual patch clamp assay; type: toxicity
Sequence of Voltage-gated inwardly rectifying potassium channel KCNH2 (Q12809 whole entry): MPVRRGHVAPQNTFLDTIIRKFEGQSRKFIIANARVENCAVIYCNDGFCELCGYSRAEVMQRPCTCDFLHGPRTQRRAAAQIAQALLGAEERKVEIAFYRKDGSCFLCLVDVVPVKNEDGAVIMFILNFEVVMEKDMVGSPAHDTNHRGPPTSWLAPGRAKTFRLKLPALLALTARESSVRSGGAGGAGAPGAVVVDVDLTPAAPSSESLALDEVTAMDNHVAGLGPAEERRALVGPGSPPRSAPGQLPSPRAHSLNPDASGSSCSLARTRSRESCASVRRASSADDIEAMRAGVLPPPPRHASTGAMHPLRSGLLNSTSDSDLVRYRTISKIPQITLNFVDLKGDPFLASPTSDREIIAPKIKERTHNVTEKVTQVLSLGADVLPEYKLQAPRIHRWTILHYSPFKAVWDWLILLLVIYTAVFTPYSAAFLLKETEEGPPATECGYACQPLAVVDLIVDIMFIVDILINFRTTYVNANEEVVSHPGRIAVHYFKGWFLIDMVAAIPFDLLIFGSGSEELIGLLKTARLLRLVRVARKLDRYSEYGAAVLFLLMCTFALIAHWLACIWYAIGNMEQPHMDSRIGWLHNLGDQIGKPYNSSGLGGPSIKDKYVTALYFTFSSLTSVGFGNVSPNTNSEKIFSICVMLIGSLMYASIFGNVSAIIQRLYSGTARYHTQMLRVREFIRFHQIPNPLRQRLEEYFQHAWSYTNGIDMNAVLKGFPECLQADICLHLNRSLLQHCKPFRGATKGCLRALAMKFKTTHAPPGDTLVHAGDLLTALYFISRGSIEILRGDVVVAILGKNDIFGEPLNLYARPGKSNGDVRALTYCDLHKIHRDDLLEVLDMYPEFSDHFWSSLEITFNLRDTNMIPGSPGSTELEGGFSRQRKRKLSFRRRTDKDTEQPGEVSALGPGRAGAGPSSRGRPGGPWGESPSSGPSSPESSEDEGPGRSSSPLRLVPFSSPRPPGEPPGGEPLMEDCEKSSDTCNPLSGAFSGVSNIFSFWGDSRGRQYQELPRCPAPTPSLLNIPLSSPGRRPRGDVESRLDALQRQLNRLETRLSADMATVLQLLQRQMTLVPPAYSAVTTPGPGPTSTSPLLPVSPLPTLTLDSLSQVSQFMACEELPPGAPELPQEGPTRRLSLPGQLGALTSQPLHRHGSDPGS

[36] = Clearance in rat at 1 mg/kg, iv; type: ADME, organism-based; settings: in vivo
Mus musculus [37] = assay: Neuroprotective activity against Eif 2bS R191H […] mouse model assessed as reduction in Eif4ebp1 level in brain at 50 mg/kg, po administered for 2 days; type: functional, organism-based; settings: time 2.0 day
[38] = molecular target: T3, Nuclear receptor subfamily 1 group I member 3 (Homo sapiens, UniProt Q14994); assay: Activation of CAR (unknown origin)
T3 sequence (Q14994 whole entry): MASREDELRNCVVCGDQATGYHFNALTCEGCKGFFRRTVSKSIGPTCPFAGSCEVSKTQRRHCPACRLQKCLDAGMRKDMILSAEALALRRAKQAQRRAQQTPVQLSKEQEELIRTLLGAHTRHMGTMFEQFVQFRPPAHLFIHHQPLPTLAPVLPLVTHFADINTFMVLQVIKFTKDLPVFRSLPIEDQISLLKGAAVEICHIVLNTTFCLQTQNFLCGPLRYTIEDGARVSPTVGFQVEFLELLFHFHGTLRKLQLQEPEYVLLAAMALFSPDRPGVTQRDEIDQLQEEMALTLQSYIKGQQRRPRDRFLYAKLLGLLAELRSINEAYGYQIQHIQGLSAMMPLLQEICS

[39] = Volume of distribution at steady state in rat at 1 mg/kg, iv; type: ADME, organism-based; settings: in vivo, read-out: Vdss
Mus musculus [40] = assay: Neuroprotective activity against Eif 2bS R191H […] mouse model assessed as reduction in Atf3 level in brain at 50 mg/kg, po administered for 2 days; type: functional, organism-based; settings: time 2.0 day
[41] = Ratio of unbound drug concentration in rat brain to plasma at 3 mg/kg, po; type: ADME, organism-based

SMILES: O=C(COc1ccc(Cl)c(F)c1)NC12CC(N3C[C@H]([C@H]4C[C@@H](OC(F)(F)F)C4)OC3=O)(C1)C2
CLhep predicted [1]: 15 mL/min/kg

SMILES: O=C(COc1ccc(Cl)cc1)NC12CCC(NC(=O)COc3ccc(Cl)cc3)(CC1)CC2
solubility kinetic [2]: < 1 µM
logD [3]: 4.5

SMILES: O=C(COc1ccc(Cl)cc1)NC1CCN(C(=O)COc2ccc(Cl)cc2)CC1
solubility kinetic [2]: 5 µM (≈ 2.19 µg/mL)
logD [3]: 3.3

SMILES: O=C(COc1ccc(Cl)c(F)c1)NC12CC(c3cnn([C@H]4C[C@@H](OC(F)(F)F)C4)n3)(C1)C2
CLhep predicted [1]: < 6 mL/min/kg

SMILES: O=C(COc1ccc(C(F)(F)F)cc1)NC12CC(c3nnc([C@H]4C[C@@H](OC(F)(F)F)C4)o3)(C1)C2
bioavailability [4]: 39%
clearance [5]: 0.4 mL/min/kg
CLhep predicted [1]: < 6 mL/min/kg
Vd [6]: 0.26 L/kg
CLhep predicted [7]: < 17 mL/min/kg
half-life [8]: 22.9 h

SMILES: O=C(COc1ccc(Cl)cc1)NC12CC(c3nnc([C@H]4C[C@@H](OC(F)(F)F)C4)o3)(C1)C2 [EVETIFATOR]
half-life [9]: 7.6 h
half-life [10]: 12.5 h
Activity (Mus musculus [11]): Active
Activity [12]: Not Active
clearance [13]: 4.8 mL/min/kg
bioavailability [14]: > 99%
Vd [15]: 2.7 L/kg
bioavailability [4]: 65%
Activity (Mus musculus [16]): Active
clearance [17]: 2.9 mL/min/kg
Activity (Mus musculus [18]): Active
Activity (Mus musculus [19]): Active
clearance [5]: 0.4 mL/min/kg
Activity (Mus musculus [20]): Active
half-life [21]: 7.4 h
Activity (Mus musculus [22]): Active
Activity (Mus musculus [23]): Active
K(p,uu,brain) [24]: 0.9
Activity [25]: Not Active
Activity (Mus musculus [26]): Active
Activity (Mus musculus [27]): Active
bioavailability [28]: 56%
Activity (Mus musculus [29]): Active
CLhep predicted [30]: < 17 mL/min/kg
Vd [31]: 1.9 L/kg
Activity (Mus musculus [32]): Active
Activity (Mus musculus [33]): Active
CLhep predicted [1]: < 6 mL/min/kg
IC50 (H4): 12.5 nM
bioavailability [34]: > 99%
IC50 [35]: 3000 nM
Vd [6]: 0.31 L/kg
clearance [36]: 0.4 mL/min/kg
Activity (Mus musculus [37]): Active
Activity [38]: Not Active
Vd [39]: 0.31 L/kg
Activity (Mus musculus [40]): Active
CLhep predicted [7]: < 17 mL/min/kg
K(p,uu,brain) [41]: 0.8
half-life [8]: 12.5 h

SMILES: O=C(COc1ccc(Cl)c(F)c1)NC12CC(NC(=O)CO[C@H]3C[C@H](C(F)(F)F)C3)(C1)C2
logD [3]: 3.6
CLhep predicted [1]: 13 mL/min/kg

The next lines start with the values.

solubility kinetic [2]: < 1 µM
logD [3]: 4.6
SMILES: O=C(COc1ccc(Cl)cc1)NC12CCC(NC(=O)COc3ccc(Cl)cc3)(CC1)C2

solubility kinetic [2]: 2 µM (≈ 0.871 µg/mL)
logD [3]: 2.9
SMILES: O=C(COc1ccc(Cl)cc1)NC12CC(NC(=O)COc3ccc(Cl)cc3)(C1)C2

solubility kinetic [2]: 184 µM (≈ 69.7 µg/mL)
logD [3]: 2.9
SMILES: O=C(COCC1CC1)NC12CC(NC(=O)COc3ccc(Cl)cc3)(C1)C2

solubility kinetic [2]: 181 µM (≈ 66 µg/mL)
logD [3]: 2.6
SMILES: O=C(COc1ccc(Cl)cc1)NC12CC(NC(=O)COC3CC3)(C1)C2
